Here are results for 8 molecules from article PMC10090470 (Parasitology, 2023).

A short description of series [1]: in vitro. The note with it: mouse. The class given is cell-based. Here is the method: L929 culture cells were seeded in 96-well plates with 4 × 10^3 cells per well and sustained in RPMI medium supplemented with 10% FBS. The compounds were added (0–400 μM, serially diluted 1:2) and the non-infected cultures incubated for 96 h at 37°C/5% CO2. Then, their viability was assessed by Alamar Blue reagent following the manufacturer's specifications. Controls were carried out with parasites kept under the same conditions in the absence of the compounds.

Series [2] deals with intracellular forms of Trypanosoma cruzi (Tulahuen strain, DTU VI). The experiment in a line: In vitro activity against intracellular forms of T. cruzi (Tulahuen strain, β-galactosidase) in L929 cells. The class given is cell-based. As to conditions: for Selectivity index (IC50/EC50): SI = LC50 (L929) / EC50 (intracellular forms); for EC90 / EC50: Tulahuen strain in L929 cells, 96 h, 95% confidence interval in brackets; for EC90: read-out: Activity against intracellular forms of the parasite EC90; for EC50: read-out: Activity against intracellular forms of the parasite EC50. Here is the method: L929 cells were infected with trypomastigotes obtained from the supernatant of infected cultures. After 2 h of interaction (10 parasites per host cell), the parasites which were not internalized were removed by replacing the RPMI medium. After 48 h of incubation, the compounds were added to the infected cultures (0–10 μM, serially diluted 1:2) and the cultures incubated for 96 h at 37°C/5% CO2. BZ and DMSO (solvent used for the compounds) were run in parallel as positive and negative controls, respectively. After the elapsed time, 50 μL per well of chlorophenol red-β-D-galactopyranoside was added and a reading was done in a spectrophotometer at 570 nm (Romanha et al., [2010]).

For series [3], the system named is bloodstream trypomastigote forms of Trypanosoma cruzi (Y strain, DTU II). Kind of series: In vitro activity against bloodstream trypomastigotes (Y strain). The class given is cell-based. As to conditions: 95% confidence interval in brackets. Here is the method: Trypomastigote forms were incubated in 96-well microplates. Briefly, 100 μL of a BT suspension (in RPMI medium + 5% FBS) containing 10^7 parasites mL^−1 was added to the same volume of each compound diluted in RPMI + 5% FBS at twice of the desired final concentration (0–50 μM, serially diluted 1:2). After 2 and 24 h at 37°C, the number of live parasites was determined by light microscope quantification using a Neubauer chamber. Controls were carried out with parasites kept under the same conditions in the absence of the compounds. BZ was run in parallel.

In series [4] the test system is L929 cells. On the set-up: method as in Simões-Silva et al. (2019). The note with it: ± S.D., ref Simões-Silva et al. (2019), read-out: Toxicity against L929 cells LC50; cited from earlier work.
Series [5] concerns intracellular forms of Trypanosoma cruzi (Tulahuen strain, DTU VI). As to conditions: read-out: Activity against intracellular forms of the parasite EC50, ± S.D., ref Simões-Silva et al. (2019); cited from earlier work.
Series [6] relates to bloodstream trypomastigote forms of Trypanosoma cruzi (Y strain, DTU II). The note with it: ref Simões-Silva et al. (2019), cited from earlier work; for EC50: read-out: Activity against bloodstream trypomastigotes EC50; for EC50 / EC90: Y strain; for EC90: read-out: Activity against bloodstream trypomastigotes EC90.
Where [7] appears, read: Trypanosoma cruzi, TULAHUEN, L929, 96 h.

Broadly, the EC90 is the point of the concentration-response curve where the effect stands at 90%. For orientation: EC50 means the midpoint of the concentration-response curve.

Read-outs that look alike come from different tables or passages of the source.

`Cc1ccc(CC(=O)c2ccc(Br)cc2OCCCCn2ccnc2)cc1Nc1nccc(-c2cccnc2)n1` [LS2/128]: the CC50 at 96 h in series [1] is 17.9 µM. Also, the “Selectivity index (IC50/EC50)” value in series [2] stood at 4.22. Moreover, the EC90 was more than 10 µM in series [2] (setting [7]); 8.93 µM in series [3] (Trypanosoma cruzi, 2 h); 5.69 µM in series [3] (Trypanosoma cruzi, 24 h). Further, the EC50 in series [2] (Trypanosoma cruzi) amounted to 4.25 µM; in series [3] (Trypanosoma cruzi, 2 h), 5.93 µM; in series [3] (Trypanosoma cruzi, 24 h) it was 4.12 µM.
In series [1], `Cc1ccc(CC(=O)c2ccc(OCCCCn3ccnc3)c(Br)c2)cc1Nc1nccc(-c2cccnc2)n1` [LS2/89] returned a CC50 at 96 h of 12.3 µM. Besides, the “Selectivity index (IC50/EC50)” value in series [2] stood at 64.74. The 90% effect concentration (EC90) in series [2] (setting [7]) was determined as 1.6 µM; in series [2], 1.68 µM; in series [3] (24 h), 4.93 µM; in series [3] (Trypanosoma cruzi, 2 h), 8.12 µM; in series [3] (Trypanosoma cruzi, 24 h), 4.9 µM. The half-maximal effective concentration (EC50) in series [2] (Trypanosoma cruzi) was 0.19 µM; in series [3] (Trypanosoma cruzi, 2 h), 4.83 µM; in series [3] (Trypanosoma cruzi, 24 h) it was 2.67 µM.
With `COc1ccc(C(=O)Cc2ccc(C)c(Nc3nccc(-c4cccnc4)n3)c2)cc1OCCCCn1ccnc1` [LS2/116], the CC50 at 96 h in series [1] is 5.13 µM. In series [2], the “Selectivity index (IC50/EC50)” value stood at 3.49. The EC90 was more than 10 µM in series [2] (setting [7]); 28.1 µM in series [3] (Trypanosoma cruzi, 2 h); 7.09 µM in series [3] (Trypanosoma cruzi, 24 h). Also, the 50% effective concentration (EC50) in series [2] (Trypanosoma cruzi) was determined as 1.47 µM; in series [3] (Trypanosoma cruzi, 2 h), 12 µM; in series [3] (Trypanosoma cruzi, 24 h), 3.89 µM.
Regarding `Cc1ccc(CC(=O)c2ccc([N+](=O)[O-])c(OCCCCn3ccnc3)c2)cc1Nc1nccc(-c2cccnc2)n1` [LS2/130], in series [2], the “Selectivity index (IC50/EC50)” value turned out to be 4.84. The EC90 in series [2] (setting [7]) came to 9.44 µM; in series [3] (Trypanosoma cruzi, 2 h), 7.31 µM; in series [3] (Trypanosoma cruzi, 24 h), 4.8 µM. Besides, the EC50 in series [2] (Trypanosoma cruzi) was 1.05 µM; in series [3] (Trypanosoma cruzi, 2 h), 5.69 µM; in series [3] (Trypanosoma cruzi, 24 h) it was 3.4 µM.
For the molecule `COc1cc(C(=O)Cc2ccc(C)c(Nc3nccc(-c4cccnc4)n3)c2)ccc1OCCCCn1ccnc1` [LS2/122], in series [1], the CC50 at 96 h turned out to be 5.44 µM. In series [2], the “Selectivity index (IC50/EC50)” value came to 1.22. In addition, the EC90 is more than 10 µM in series [2] (setting [7]); 22.1 µM in series [3] (Trypanosoma cruzi, 2 h); 5.34 µM in series [3] (Trypanosoma cruzi, 24 h). For the same molecule, the half-maximal effective concentration (EC50) in series [2] (Trypanosoma cruzi) worked out at 4.47 µM; in series [3] (Trypanosoma cruzi, 2 h), 11.1 µM; in series [3] (Trypanosoma cruzi, 24 h), 3.27 µM.
With `Cc1ccc(CC(=O)c2cccc(OCCCCn3ccnc3)c2)cc1Nc1nccc(-c2cccnc2)n1` [LS2/97], the CC50 at 96 h in series [1] was 19.3 µM. Further, the “Selectivity index (IC50/EC50)” value in series [2] was 14.81. In addition, the concentration for an effect of 90% (EC90) is more than 10 µM in series [2] (setting [7]); 11.4 µM in series [3] (Trypanosoma cruzi, 2 h); 8.52 µM in series [3] (Trypanosoma cruzi, 24 h). Moreover, the half-maximal effective concentration (EC50) in series [2] (Trypanosoma cruzi) stood at 1.3 µM; in series [3] (Trypanosoma cruzi, 2 h), 7.84 µM; in series [3] (Trypanosoma cruzi, 24 h), 4.72 µM.
Take `O=C(Cn1ccnc1[N+](=O)[O-])NCc1ccccc1` [BZ, benznidazole]: the CC50 in series [4] was more than 400 µM. For the same molecule, the concentration giving a half-maximal response (EC50) in series [5] is 4.1 ± 1.3 µM; in series [6] (2 h), more than 50 µM; in series [6] (24 h, ± S.D.) it was 14.4 ± 3.4 µM. In addition, the “activity against bloodstream trypomastigotes in words” value in series [6] (after 2 h of drug exposure) is “completely inactive”. For the same molecule, the EC90 in series [6] (2 h) is more than 50 µM; in series [6] (24 h, ± S.D.) it was 22.8 ± 7.8 µM.
As to `Cc1ccc(CC(=O)c2ccccc2OCCCCn2ccnc2)cc1Nc1nccc(-c2cccnc2)n1` [LS2/98], the CC50 at 96 h in series [1] was found to be 12.2 µM. Also, in series [2], the “Selectivity index (IC50/EC50)” value stood at 3.93. In addition, the concentration for an effect of 90% (EC90) in series [2] (setting [7]) was more than 10 µM; in series [3] (Trypanosoma cruzi, 2 h) it was more than 50 µM; in series [3] (Trypanosoma cruzi, 24 h) it was 22 µM. Moreover, the concentration giving a half-maximal response (EC50) in series [2] (Trypanosoma cruzi) was 3.31 µM; in series [3] (Trypanosoma cruzi, 2 h), more than 50 µM; in series [3] (Trypanosoma cruzi, 24 h), 9.59 µM.
